Data taken from patent publication US12636386B2, “Compositions and methods for the treatment and imaging of cancer” (BOARD OF REGENTS OF THE UNIVERSITY OF NEBRASKA, priority 2021, dated 2026).
Where “and” joins values, the source holds several entries; their conditions need not be identical. Equal entries are not always repeated. Where two headings read alike, the source gives them in different places. One block for each compound: values may come before it.

Key:
[1] = Ex vivo stability in human serum; type: in vitro ADME; conditions: 37° C., 5% CO2; average±SE; monoexponential fit of percent intact compound
Experimental: (§1) Aliquots of GPAID (1.4-2.3 MBq) in 120 μl of 25% EtOH/PB (10-mM, pH 6.1) were added to 6.88-ml phosphate-buffered saline (PBS), cell culture media, or serum (mouse, pig, or human). Mixtures were briefly vortexed and incubated at 37° C. and 5% CO2. At selected times, 1 ml of GPAID incubation mixture was withdrawn, 1-ml MeCN was added, and the mixture was vortexed and centrifuged at 2000 rpm for 15 minutes at 4° C. The supernatant was removed, and the radioactivity measured. Supernatant (250-500 μl) were acidified to pH˜6 with 0.05-N TFA (2-8 μl). The excess of MeCN was evaporated with a stream of nitrogen and 100 μl of water added. This mixture was passed through a 0.22-μm filter and 100 μl (111-185 kBq) injected onto the HPLC system. HPLC analysis of extracts proceeded on the ACE C18 100-A column ([…], 4.6×250 mm) eluted at 0.8 ml/minute with a linear gradient of MeCN from 10% to 95% over 45 minutes and kept at 95% MeCN for 15 minutes the radioactivity detection (Bioscan). Both solvents contained 0.07% TFA (v/v).
(§2) Ex vivo stability of GPAID was assessed in PBS, cell culture medium without NB cells, and in the presence of NB cells and in human, mouse, and porcine sera after various times of incubation. […] Half-lives in sera were calculated from the area under the peak of the intact GPAID recovered from the incubation mixtures plotted as a function of the incubation time. […]

[2] = Ex vivo stability in pig serum; type: in vitro ADME; conditions: 37° C., 5% CO2; average±SE; monoexponential fit of percent intact compound
Experimental: as §1, §2

[3] = Ex vivo stability in mouse serum; type: in vitro ADME; conditions: mouse serum contains esterases including carboxylesterase
Experimental: as §1, §2

Stability in PBS = type: physicochemical; conditions: 37° C.
Experimental: as §1, §2

[4] = Stability in cell culture medium without NB cells; type: physicochemical; conditions: 5% CO2
Experimental: as §1, §2

SK-N-SH cells [5] = assay: Radioactive species in medium recovered from NB cell monolayers cultured with GPAID; type: cell-based, human
Experimental: as §1
Ex vivo stability of GPAID was assessed in PBS, cell culture medium without NB cells, and in the presence of NB cells and in human, mouse, and porcine sera after various times of incubation. The analytical details are provided hereinabove. Half-lives in sera were calculated from the area under the peak of the intact GPAID recovered from the incubation mixtures plotted as a function of the incubation time. The degradation curves followed the first-order kinetics. Data were fitted into the monoexponential equations with the intercept set at 100% (FIG. 2A). In a typical experiment, a final concentration of GPAID in serum approximated radioactivity levels of ^131IMIBG in blood of children receiving therapeutic doses (Pandit-Taskar, et al. (2017) Clin Nucl Med., 42(10):741-748; Matthay, et al. (1998) J Clin Oncol., 16(1):229-236). 0

[6] = tested on: BE(2)-C and SK-N-SH cells; assay: Time- and concentration-dependent cellular uptake, statements covering both NB cell lines; type: cell-based, human
From the text: (§3) Two human NB cell lines SK-N-SH (SK) and BE(2)-C(BE) and one murine NB cell line N1E-115 (N1E) were purchased from the American Type Culture Collection (ATCC; Manassas, VA). Cells were maintained according to the vendor's instructions. For animal studies, cells were harvested when ˜70% confluent and cryopreserved until ready to use.
(§4) Established protocols were used in these experiment (Kortylewicz, et al. (2020) J Med Chem., 63:2051-2073; Baranowska-Kortylewicz, et al. (1994) J Label Compd Radiopharm., 34(6):513-521; Kortylewicz, et al. (2009) J Med Chem., 52(16):5124-5143). Briefly, NB cells plated in TPP T25 flasks (Midwest Scientific, Valley Park, MO) at 5×10^5 cells per flask were maintained in culture for 48-72 hours, depending on the doubling time of the cell line, until 60%-70% confluent. For time-dependent uptake studies, GPAID was added to the growth medium to produce the average concentrations of 28.2±5.5, 27.6±2.8, and 30.7±1.0 kBq/ml in SK, BE, and N1E cells, respectively. Radioactive medium was removed after 1, 5, 16, 24, and 48 hours in culture (n=4 per time). Cells were harvested by scraping and enumerated using Cellometer (Nexcelom Bioscience, Lawrence, MA). Cell suspensions were centrifuged for 10 minutes at 1500 rpm; cell pellets resuspended in ice-cold PBS, transferred into microfuge tubes, and centrifuged at 500×g for 10 minutes. The radioactive content of cell pellets was measured in a gamma counter. The cellular uptake was calculated in terms of MBq per cell. For subcellular fractionation experiments, NB cells grown as monolayers were treated with GPAID and processed as described (Kortylewicz, et al. (2020) J Med Chem., 63:2051-2073). In the concentration-dependent uptake experiments, GPAID in the appropriate medium at several concentrations was added to the cell monolayers. Cells were processed after 1-hour incubation. Radioactive medium was removed, and monolayers were washed once with full nonradioactive medium and PBS. Cells were harvested and enumerated, and their radioactive content was measured.

BE(2)-C cells [7] = assay: Subcellular distribution in BE(2)-C cells; type: cell-based, human
From the text: as §3, §4

SK-N-SH cells [8] = assay: Subcellular distribution in SK-N-SH cells; type: cell-based, human
From the text: as §3, §4

N1E-115 cells = assay: Subcellular distribution in N1E-115 cells; type: cell-based, murine
From the text: as §3, §4

BE(2)-C cells [9] = assay: Clonogenic survival of BE(2)-C cells; type: cell-based, human; conditions: on average
Experimental: (§5) Cells were plated into T25 flasks and allowed to grow until ˜60%-70% confluent. Fresh medium (3 ml) was added to one set of flasks (n=4 per time). To the second set of flasks (n=4 per time), fresh medium (3 ml) containing 100-μM nonradioactive MIBG was added. All cells were returned to the incubator for 30 minutes, after which time 3 ml of medium containing GPAID (51.5±1.4 kBq/ml) was added to produce the final concentration of 50-μM MIBG and 25.8±0.7 kBq/ml GPAID. Cells were returned to the incubator for additional 1, 24, and 48 hours. At designated times, media were removed, monolayer washed 1× with full medium, 2× with PBS, and SK and BE cells were harvested with the nonenzymatic cell dissociation solution (Sigma-Aldrich). N1E cells were harvested by flushing the monolayer with spent media. Cell numbers were determined, and their radioactive content measured in a gamma counter. The whole cell uptake was calculated on terms of MBq per cells. The clonogenic survival was calculated as the ratio of the number of colonies produced by cells treated with nonradioactive MIBG and GPAID to the number of colonies produced by cells treated with GPAID only. The cell survival at 24 hours was expressed as the ratio of viable cells in treatment groups to cells in untreated controls.

NB cells = assay: Survival of NB cells, trypan blue exclusion method followed by clonogenic assay; type: cell-based, human; conditions: trypan blue exclusion and clonogenic assay; 25.8±0.7 kBq/ml
Experimental: as §5

N1E-115 tumors = assay: Therapy of mice bearing IP N1E allografts; type: in vivo; conditions: single IP dose 3.64±0.10 MBq per mouse 1 week after implant; 14 days after treatment; NT controls 2.61±0.57 g; p=0.03
Experimental: Research involving animals was performed in accordance with the UNMC institutional guidelines and protocols as defined by the Institutional Animal Care and Use Committee for US institutions. Athymic NCr nude mice (spontaneous mutant) were purchased from Taconic (Rensselaer, NY). The intraperitoneal route […] was used for the tumor implant and dose administration. All experiments were conducted in mice of both genders 4 to 8 weeks old.
Four-week-old NCr nu/nu mice, male (n=10) and female (n=10), received IP implant of 5×10^6 N1E cells. One week later, mice were randomly assigned via a lottery to either control or treatment group. Control mice were given IP injection of the vehicle. Mice in the therapy group received a bolus IP injection of 3.64±0.10 MBq GPAID per mouse (˜145 MBq/kg body weight [bw]). Triplicate aliquots of the injected dose (ID) were counted in a gamma counter. Syringes containing the dose and syringes after the injection were weighed on the analytical balance to determine ID. Whole body radioactivity was also measured immediately after each injection to confirm ID. Necropsy was performed at the termination of the experiment. Blood was collected via cardiac puncture. […]
All variables are expressed as average±standard deviation or ±standard error. The cellular uptake, cell survival, and other biological properties were analyzed using two-sided Student's t test. […]

[10] = Hemoglobin and hematocrit in treated tumor-bearing mice; type: in vivo; conditions: mice treated with 3.64±0.10 MBq GPAID IP; termination necropsy
From the text: (§6) Four-week-old NCr nu/nu mice, male (n=10) and female (n=10), received IP implant of 5×10^6 N1E cells. One week later, mice were randomly assigned via a lottery to either control or treatment group. Control mice were given IP injection of the vehicle. Mice in the therapy group received a bolus IP injection of 3.64±0.10 MBq GPAID per mouse (˜145 MBq/kg body weight [bw]). Triplicate aliquots of the injected dose (ID) were counted in a gamma counter. Syringes containing the dose and syringes after the injection were weighed on the analytical balance to determine ID. Whole body radioactivity was also measured immediately after each injection to confirm ID. Necropsy was performed at the termination of the experiment. Blood was collected via cardiac puncture. Aliquots were reserved for determination of hemoglobin (Hb; HemoCue, Ängelholm, Sweden) and hematocrit (Hct).

[11] = Biodistribution at necropsy 14 days after the dose; type: in vivo, mice; conditions: necropsy 14 days after the IP dose
From the text: as §6

[12] = monoprotonated cation at physiological pH; cited from earlier work
[13] = from Kortylewicz, et al. (2020) J Med Chem; cited from earlier work
[14] = from Kortylewicz, et al. (2020) J Med Chem; cited from earlier work; remark: listed apart in the source
[15] = target: T1, norepinephrine transporter (Homo sapiens, UniProt P23975); assay: Competitive uptake assay with nonradioactive MIBG in SK-N-SH cells; type: cell-based; conditions: 50 μM nonradioactive MIBG; 25.8±0.7 kBq/ml GPAID; exponentially growing SK cell monolayers
T1 construct: These cells represent a well-established robust model for the NET-specific MIBG uptake; endogenous in cells; host or cells: SK (SK-N-SH) and BE (BE(2)-C) neuroblastoma cells, exponentially growing monolayers
T1 sequence (P23975 whole entry): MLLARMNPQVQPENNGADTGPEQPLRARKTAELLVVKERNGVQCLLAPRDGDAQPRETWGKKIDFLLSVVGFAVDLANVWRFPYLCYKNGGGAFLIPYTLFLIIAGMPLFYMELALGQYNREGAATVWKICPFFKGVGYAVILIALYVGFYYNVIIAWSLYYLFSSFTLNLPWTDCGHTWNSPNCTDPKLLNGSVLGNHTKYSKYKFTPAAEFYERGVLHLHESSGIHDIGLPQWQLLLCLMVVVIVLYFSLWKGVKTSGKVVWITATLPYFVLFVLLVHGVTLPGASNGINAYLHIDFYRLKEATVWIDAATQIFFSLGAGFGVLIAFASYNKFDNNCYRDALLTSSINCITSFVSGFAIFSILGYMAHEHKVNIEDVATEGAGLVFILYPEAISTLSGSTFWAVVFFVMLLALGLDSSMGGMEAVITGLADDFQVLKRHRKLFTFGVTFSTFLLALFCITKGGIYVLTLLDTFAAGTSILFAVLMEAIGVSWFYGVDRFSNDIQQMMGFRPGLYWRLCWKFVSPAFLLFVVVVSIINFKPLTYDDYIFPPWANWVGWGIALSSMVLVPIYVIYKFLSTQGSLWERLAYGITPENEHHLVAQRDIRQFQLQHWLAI
Experimental: as §5

[16] = target: T1, norepinephrine transporter; assay: Competitive uptake assay with nonradioactive MIBG in BE(2)-C cells; type: cell-based; conditions: 50 μM nonradioactive MIBG; 25.8±0.7 kBq/ml GPAID; exponentially growing BE cell monolayers
Experimental: as §5

NET = NET (Homo sapiens, UniProt P23975); conditions: Smets, et al. (1989) Cancer Res.; cited from earlier work
NET, sequence (P23975 whole entry): as above

[17] = incubated with exponentially growing NB cell monolayers for 24 hours
[18] = 1 hour with GPAID, washed, additional 4 hours in nonradioactive medium
[19] = N1E cells, 24-hour incubation, average 29±3 kBq/ml

Half-life in human serum [1]: 7.9 ± 0.7 h
Half-life in pig serum [2]: 5.8 ± 2.1 h
Stability in mouse serum [3]: not stable
Stability in PBS (Stability in PBS): stable
Stability in cell culture in the absence of NB cells ([4]; 37° C.): stable
Intact GPAID remaining in cell culture medium without cells ([4]; 24 hours at 37° C.): > 90%
Total radioactivity in the form of either free ^125I or ^125I-uracil in medium (SK-N-SH cells [5]; SK-N-SH cells cultured with GPAID for 24 hours at 37° C., 5% CO2 (FIG. 2D)): ~30%
Intact GPAID in recovered media (SK-N-SH cells [5]; [17]): ~42%
^125IUdR in recovered media (SK-N-SH cells [5]; [17]): ~28%
Compound: (R)-(−)-5-[^125I]Iodo-3′-O-[2-(ε-guanidinohexanoyl)-2-phenylacetyl]-2′-deoxyuridine [GPAID]
^125I disintegrations accumulated in 24 hours ([6]; 1-hour exposure, all tested concentrations >0.015 MBq/ml): > 20 disintegrations per cell
Dependence of cellular radioactivity on extracellular concentration ([6]; 1-hour treatment, entire tested range up to 200 kBq/ml (2.45×10^−9 M)): directly proportional to the extracellular concentration of GPAID
Cellular uptake in BE cells compared with SK cells ([6]; 1 hour incubation, washed and processed immediately): nearly identical
Total cellular radioactivity associated with DNA (BE(2)-C cells [7]; [18]): > 95%
Total recovered ^125I in DNA (BE(2)-C cells [7]; after 1 hour with GPAID): 32%
^125I associated with DNA (BE(2)-C cells [7]; at 24 hours): practically all
Total cellular radioactivity associated with DNA (SK-N-SH cells [8]; [18]): ~75%
Total recovered ^125I in DNA (SK-N-SH cells [8]; after 1 hour with GPAID): ~22%
^125I associated with DNA (SK-N-SH cells [8]; at 24 hours): practically all
^125I recovered in DNA (DNA pellet) (N1E-115 cells; [19]): > 99%
^125I activity in the nuclei bound to DNA (N1E-115 cells; N1E-115 cells, 24-hour treatment, 29±3 kBq/ml (FIG. 3E)): ~100%
BE cells that survived, retained reproductive integrity and formed colonies (BE(2)-C cells [9]; GPAID extracellular concentration 25.8±0.7 kBq/ml): 32%
Survival of NB cells treated with GPAID alone (NB cells): significant reduction in survival
Average tumor weight at necropsy (N1E-115 tumors): 0.88 ± 0.54 g
HCt level [10]: within the normal range values
Hb level [10]: within the normal range values
Residual level in the adrenal glands [11]: 0.034±0.016 % ID/g
Radioactivity retention in tissues ([11]; all tissues): only marginal radioactivity retention
pKa [12]: ~12

Compound: N=C(N)NCCCCCC(=O)O[C@H]1C[C@H](n2cc([125I])c(=O)[nH]c2=O)O[C@@H]1CO [IDG, 5-[^125I]iodo-3′-O-(ε-guanidinohexanoyl)-2′-deoxyuridine]
Half-life in human serum [13]: 2.3 ± 0.1 h and ~2.3 h
Half-life in pig serum [14]: 3.6 ± 0.1 h

Compound: N=C(N)NCc1cccc([131I])c1 [MIBG, metaiodobenzylguanidine]
Inhibition of GPAID uptake [15]: 70%
Inhibition of GPAID uptake [16]: 85%
Colonies from cells exposed to nonradioactive MIBG alongside GPAID compared with GPAID alone (BE(2)-C cells [9]; 50-μM MIBG, 25.8±0.7 kBq/ml GPAID): 3 ×
Concentration at which uptake begins to saturate (NET): > 500 nM
Concentration up to which uptake is linear (NET): ~100 nM

Compound: N=C(N)NCc1cccc([125I])c1 [^125IMIBG]
Recovery in the cytoplasmic fraction (N1E-115 cells; N1E cells, 24-hour incubation): majority
^125I recovered in DNA (DNA pellet) (N1E-115 cells; [19]): 0%
^125I retrieved in the soluble nuclear fraction (N1E-115 cells; [19]): ~19%
